Data reported in patent publication US9234025B2, “Extracellular allosteric inhibitor binding domain from a tyrosine kinase receptor” (SANOFI, priority 2009, dated 2016).

Test system: FGFR2
Test: FRS2, Erk1/2 and PLCγ phosphorylation in FGFR2-transfected HEK293 cells (western blot)
Format: cell-based, human
Conditions: compound at 1 μM
Protocol: HEK293 cells were either transiently of stably transfected (using FuGENE 6, Roche) with hFGFR2IIIca or hFGFR2IIIca-Y328D cloned in pcDNA3 (Invitrogen). Stably transfected cells were grown in G418 (400 μg/ml) containing medium. Before stimulation, the cells were starved overnight in DMEM (0% serum), and pre-incubated with […] at the required concentration. The cells were subsequently stimulated with FGF2 (concentration between 0.5-10 ng/ml) for 5 min at 37° C. with or without SSR or SU5402 at 1 μM. After washing with ice-cold phosphate-buffered saline containing phosphatase inhibitors (Roche), cells were lysed in RIPA buffer (Tris 30 mM HCl pH 7.5, 150 mM NaCl, 1 mM EDTA, 1% triton-X, 0.5% w/v deoxycholate, containing phophatase and protease inhibitors as described by the manufacturer (Roche)). Cell lysates were centrifuged at 12,000 g for 10 min, and the supernatants were collected. Proteins were separated on Novex polyacrylamide gels (Invitrogen, Carlsbad, Calif.) and subsequently transferred onto Hybond ECL nitrocellulose membranes (Amersham Pharmacia). Following incubation with 5% non-fat milk powder in PBS, the membranes were incubated overnight at 4° C. with the following antibodies: phospho-ERK1/2 (CST:9101), phospho-FRS2 (CST:3861), phospho-PLCγ (CST:2821) and FGFR2 (F0300, Sigma).
In order to evaluate SSR effect on FGFR-controlled phosphor-signalling, HEK293 cells have been transfected with FGFR2 and the two main pathways following FGFR autophosphorylation, PLCγ and FRS2, have been studied by western blot in comparison with a published FGFR tyrosine kinase inhibitor SU5402 described to inhibit FGFR-dependent FRS2 and PLCγ cascades (Zhen et al., Oncogene 2007). In such cells, FGF induces FRS2, Erk1/2 and PLCγ phosphorylation. […] More generally, these differences in phosphorylation can be used as reporter to evaluate allosteric modulators.

Cc1c[nH]c(/C=C2\C(=O)Nc3ccccc32)c1CCC(=O)O [SU5402]
blocks: FGF-induced Erk1/2 phosphorylation | FGF-induced FRS2 phosphorylation | FGF-induced PLCγ phosphorylation
